This test concerns shark kidney calcium receptor (SKCaR). In words: FURA-2 ratio imaging fluorescence assay in HEK cells expressing SKCaR. In kind it is cell-based, dogfish (Squalus acanthias). To be noted: 10 mM amino acid or AA Mixture; extracellular Ca2+ 0.5–20 mM (FIG. 52). An excerpt: Full length recombinant dogfish (Squalus acanthias) shark kidney calcium receptor ([…] NO.: 17) was expressed in human embryonic kidney […] ligated into the mammalian expression vector […] and transfected into HEK cells using standard techniques. The presence of SKCaR protein in transfected cells was verified by western blotting. Activation of SKCaR and its ability to respond to individual amino acids or mixtures thereof was quantified using a well characterized FURA-2 ratio imaging fluorescence assay where increases in intracellular Ca^2+ produced by SKCaR activation are detected and expressed as % normalized intracellular calcium response to receptor activation. Bai, M., S. et al., J. Biol. Chem., 32:19537-19545 (1996); Conigrave, A, et al., Proc. Nat. Acad. Sci. 97:4814-4819 (2000). […] Baseline extracellular Ca^2+ concentration was 0.5 mM. Aliquots of Ca^2+ were added to produce final extracellular concentrations of 2.5 mM, 5 mM, 7.5 mM, 10 mM and 20 mM Ca^2+ with changes in the fluorescence recorded.

The text below walks through data of patent US7069876B2, “Methods for raising pre-adult anadromous fish” (MariCal, Inc., priority 2000, dated 2006).

`CC[C@H](C)[C@H](N)C(=O)O` [Ile, L-Isoleucine]: the “effect on SKCaR's response to extracellular Ca2+” value is “increase SKCaR's response to a given Ca^2+ concentration”.
To `N[C@@H](Cc1ccccc1)C(=O)O` [Phe, Phenylalanine] belongs “increase SKCaR's response to a given Ca^2+ concentration”.
